Data taken from paper PMC10537604, “Development and Assessment of 1,5–Diarylpyrazole/Oxime Hybrids Targeting EGFR and JNK–2 as Antiproliferative Agents: A Comprehensive Study through Synthesis, Molecular Docking, and Evaluation” (Molecules, 2023).
Where two headings read alike, the source gives them in different places.

What was measured:
[1] = Nitric oxide release, Griess colorimetric method; type: physicochemical; conditions: phosphate buffer pH 7.4, N-acetylcysteine
Protocol: For the indirect determination of NO, the Griess colorimetric approach was utilized, which includes spectrophotometry measurements of the stable decomposition products NO2^− and NO3^−. This method requires that NO3^− is first reduced to NO2^− and then NO2^− is determined by the Griess reaction that includes two steps, the first step is a diazotization reaction in which the NO-derived nitrogen agent, dinitrogen trioxide (N2O3), which is produced by the spontaneous oxidation of NO with sulfanilamide to form the diazonium ion, is used. […] In order to evaluate thiol-induced NO generation from the appropriate compounds, including NO-donating oximes 8a–b, 8d–i, and 10a–c, they were incubated in aqueous phosphate buffer of pH 7.4 in the presence of excess N-acetylcysteine, which serves as a source of thiols that are essential for the release of NO from oximes. The signal intensity of the dye is proportional to the amount of NO released. To quantify the amount of NO released, a standard curve was made by measuring the change in absorbance of various concentrations of standard sodium nitrite solutions treated by the same way. […] At the first hour, the amount of nitric oxide released increased in compounds 8i, 8b, and 8h, while the maximum release of nitric oxide occurring in compounds 8b and 8h was at 2 h. Then, the amount of nitic oxide released declined, which may explain the biological importance of oxime moiety as a source of nitric oxide release in comparison with ketone intermediates 7a–j and 9a–c, as shown in the anticancer activity of oxime derivatives.
The nitrite calibration curve in addition to the absorbance of the tested compounds were measured on Shimadzu UV-160, UV-Visible spectrophotometer (Shimadzu, Tokyo, Japan). The tested compounds were prepared as solutions in DMF and diluted with the buffer system until a concentration of 100 mM. N-Acetyl cysteine solution was prepared in a concentration of 500 mM in methanol. Griess reagent consists of 0.1% w/v NED solution in water and sulfanilamide solution (1% w/v of sulfanilamide in 5% w/v phosphoric acid). Nitrite standard solution (0.1 M sodium nitrite in water) stock solution was prepared, from which a dilute solution of 100 μM nitrite solution was prepared by dilution 1 mL of the stock solution to 1000 mL with phosphate buffer of pH 7.4. From this solution, 4 serials 2-fold dilutions were performed to generate different concentrations of the nitrite solution (100.00, 50.00, 25.00, and 12.50 μM) and these concentrations were used for nitrite calibration curve.
Sulfanilamide and NEDD solutions were kept at 25 °C; […] of sulfanilamide solution was added to each dilution of the prepared standard nitrite solution. The mixture was left at 25 °C for 5–10 min protected from light. To this mixture, […] of the NEDD solution was added and the mixture was again left for 5–10 min at 25 °C protected from light. […] A plot of the average absorbance value for each concentration of the nitrite standard solution as a function of “Y” against nitrite concentration as a function of “X” was constructed to generate a standard nitrite calibration curve at pH 7.4.
The amount of NO released from the tested compounds 8a–b, 8d–I, and 10a–c was measured using the Griess colorimetric method either in phosphate buffer of pH 7.4 in the presence of N-acetyl cysteine, which serves as a source of thiols. The amount of NO released from the tested compounds was measured relative to NO released from standard sodium nitrite solution.
Different solutions of the tested compounds 8a–b, 8d–i, and 10a–c in DMF were diluted using phosphate buffer of pH 7.4 till a final concentration of 100 mM (test solutions). To […] of different test solutions, […] of N-acetyl cysteine solution was added and the obtained solution was kept in an incubator at 37 °C (treated solutions). […]

[2] = system: human colorectal adenocarcinoma cell line DLD-1; experiment: WST-8 antiproliferative assay, DLD-1; type: cell-based
Protocol: Compounds 7a–j, 8a–j, 9a–c, and 10a–c were evaluated for in vitro anticancer activities against five different cancer cell lines, namely, human colorectal adenocarcinoma cell lines DLD-1, human cervical cancer cell line Hela, human pancreatic cancer cell line SUIT-2, human myelogenous leukemia cell line K562, and human hepatocellular carcinoma cell line HepG2 using WST-8 assay at concentrations of 100 µM to investigate the growth inhibition percent (GI%) of each compound using daunorubicin as a reference drug. […]. […] So, as a conclusion on the SAR study of those compounds as antiproliferative agents, the oxime moiety potentiated the anticancer activity and electron donating groups on R1 and R2 played an important role on this activity. Moreover, the sulfamoyl moiety on R3 seems to play a potential role in the activity of the prepared compounds (Table 1).
All selected compounds and daunorubicin were recorded as the minimum concentration required to inhibit half cell growth (IC50) and the results are listed in Table 2.
Evaluation of anticancer activity was performed according to the standard water-soluble tetrazolium-8 (WST-8) assay at the Faculty of Engineering, Yamagata University, Yonezawa, Japan, using an MTP-310 absorbance microplate reader. The EGFR inhibitory assay was carried out at the Faculty of Engineering, Yamagata University, Yonezawa, Japan, according to the protocol enzyme linked immunosorbent assay (ELISA) kits (Douset sandwich ELISA test, recombinant mouse EGFR). The JNK-2 inhibitory assay was performed at the Faculty of Engineering, Yamagata University, Yonezawa, Japan, according to the protocol of enzyme-linked immunosorbent assay (ELISA), the assay was carried out using the JNK-2 kit (Simple Step ELISA, pT183/Y185, Abcam Company, Cambridge, CB2 0AX, UK). Apoptosis and cell cycle analysis was performed at Faculty of medicine, Yamagata University, Yamagata, Japan, using BD FACS melody. Molecular docking was performed at the Nano Medical Engineering Laboratory, RIKEN Cluster for Pioneering Researchers, RIEKN, Japan, using ICM-Pro 3.8 software (MolSoft L.L.C., San Diego, CA, USA).
According to the standard water-soluble tetrazolium-8 (WST-8) assay, the current synthesized compounds have been tested for their anticancer activities against different five cancer cell lines; DLD-1, Hela, K562, SUIT-2, and HepG2 and daunorubicin was used as reference drug by the WST-8 assay. The five cells were maintained in a suspension culture, (Dulbecco’s modified eagle medium (DMEM) for SUIT-2, Hela, and HepG2 or PRIM for K562 and DLD), supplemented with 5% FBS (Fetal Bovine Serum) containing 1% of a penicillin-streptomycin (1:1) mixture. A 100 μL aliquot of cells (10,000 cells/mL) was added to a 96 well plate and incubated for 24 h at 37 °C in a humidified incubator containing 5% CO2 in the air. After 24 h, a 10 μL aliquot of test compound (concentrations varying in the range of 10–150 µM) was added to each of the 96 wells and incubated for 24 h. Then A 10 μL WST-8 solution (mixture of WST-8 and 1-methoxy PMS) was added to each well and the incubation continued for 3 h. The visible absorbance at 450 nm and 630 nm as the reference wavelength of each well was quantified using an MTP-310 absorbance microplate reader. Daunorubicin was used as a positive control. The results of cytotoxicity were recorded as growth inhibition percentages and as IC50 values.

[3] = DLD-1, 100 µM, WST-8 assay, read-out: Growth Inhibition (GI%) DLD-1

melting point [°C]	Compound	Amount of NO Released (mol/mol) 1 h [1] [mol/mol]	Amount of NO Released (mol/mol) 2 h [1] [mol/mol]	Amount of NO Released (mol/mol) 3 h [1] [mol/mol]	Amount of NO Released (mol/mol) 4 h [1] [mol/mol]	inhibition at 100 µM [2, 3] [%]	inhibition at 100 µM ([2]; DLD-1, read-out: Growth Inhibition (GI%) DLD-1) [%]	IC50 ([2]; DLD-1, read-out: IC50 DLD-1) [µM]
167 to 170	COc1cc(/C(C)=N/O)ccc1OC(=O)c1cc(-c2ccccc2)n(-c2ccccc2)n1 [Compound 8a, (E)–4–(1–(Hydroxyimino)ethyl)2–methoxyphenyl 1,5–diphenyl–1H–pyrazole–3–carboxylate]	0.095 ± 0.036	0.121 ± 0.047	0.108 ± 0.042	0.056 ± 0.022	25.7	–	–
123 to 125	COc1cc(/C(C)=N/O)ccc1OC(=O)c1cc(-c2ccc(C)cc2)n(-c2ccccc2)n1 [Compound 8b, (E)–4–(1–(Hydroxyimino)ethyl)–2–methoxyphenyl 1–phenyl–5–p–tolyl–1H–pyrazole–3–carboxylate]	0.102 ± 0.039	0.159 ± 0.019	0.105 ± 0.025	0.095 ± 0.030	92	–	–
115 to 118	COc1ccc(-c2cc(C(=O)Oc3ccc(/C(C)=N/O)cc3OC)nn2-c2ccccc2)cc1OC [Compound 8e, (E)–4–(1–(Hydroxyimino)ethyl)–2–methoxyphenyl 5–(3,4–dimethoxy phenyl)–1–phenyl–1H–pyrazole–3–carboxylate]	0.064 ± 0.022	0.120 ± 0.046	0.081 ± 0.030	0.048 ± 0.018	29.2	–	–
122 to 124	COc1cc(/C(C)=N/O)ccc1OC(=O)c1cc(-c2ccccc2)n(-c2ccc(S(N)(=O)=O)cc2)n1 [Compound 8f, (E)–4–(1–(Hydroxyimino)ethyl)–2–methoxyphenyl 5–phenyl–1–(4–sulfamoyl phenyl)–1H–pyrazole–3–carboxylate]	0.096 ± 0.036	0.116 ± 0.045	0.079 ± 0.030	0.048 ± 0.018	72.9	–	–
–	COc1cc(/C(C)=N/O)ccc1OC(=O)c1cc(-c2ccc(C)cc2)n(-c2ccc(S(N)(=O)=O)cc2)n1 [Compound 8g, (E)–4–(1–(Hydroxyimino)ethyl)–2–methoxyphenyl 1–(4–sulfamoylphenyl)–5–p–tolyl–1H–pyrazole–3–carboxylate]	0.083 ± 0.035	0.154 ± 0.044	0.141 ± 0.039	0.089 ± 0.019	85.8	–	–
–	COc1cc(/C(C)=N/O)ccc1OC(=O)c1cc(-c2ccc(Cl)cc2)n(-c2ccc(S(N)(=O)=O)cc2)n1 [Compound 8i, (E)–4–(1–(Hydroxyimino)ethyl)–2–methoxyphenyl 5–(4–chlorophenyl)–1–(4–sulfamoyl phenyl)–1H–pyrazole–3–carboxylate]	0.105 ± 0.029	0.115 ± 0.018	0.109 ± 0.046	0.087 ± 0.035	34	–	–
–	C/C(=N\O)c1ccc(NC(=O)c2cc(-c3ccccc3)n(-c3ccc(S(N)(=O)=O)cc3)n2)cc1 [Compound 10a, (E)–N–(4–(1–(Hydroxyimino)ethyl)phenyl)–5–phenyl–1–(4–sulfamoylphenyl)–1H–pyrazole–3–carboxamide]	0.054 ± 0.023	0.108 ± 0.043	0.069 ± 0.024	0.036 ± 0.012	99	–	–
–	COc1ccc(-c2cc(C(=O)Nc3ccc(/C(C)=N/O)cc3)nn2-c2ccc(S(N)(=O)=O)cc2)cc1OC [Compound 10c, (E)–5–(3,4–Dimethoxyphenyl)–N–(4–(1–(hydroxyimino)ethyl)phenyl)–1–(4–sulfamoyl phenyl)–1H–pyrazole–3–carboxamide]	0.075 ± 0.036	0.151 ± 0.049	0.114 ± 0.030	0.081 ± 0.020	92.4	–	–

Compound	melting point [°C]	Amount of NO Released (mol/mol) 1 h [1] [mol/mol]	Amount of NO Released (mol/mol) 2 h [1] [mol/mol]	Amount of NO Released (mol/mol) 3 h [1] [mol/mol]	Amount of NO Released (mol/mol) 4 h [1] [mol/mol]	inhibition at 100 µM [2, 3] [%]	inhibition at 100 µM ([2]; DLD-1, read-out: Growth Inhibition (GI%) DLD-1) [%]	IC50 ([2]; DLD-1, read-out: IC50 DLD-1) [µM]
COc1cc(/C(C)=N/O)ccc1OC(=O)c1cc(-c2ccc(Cl)cc2)n(-c2ccccc2)n1 [Compound 8d, (E)–4–(1–(Hydroxyimino)ethyl)–2–methoxyphenyl 5–(4–chlorophenyl)–1–phenyl–1H–pyrazole–3–carboxylate]	106 to 109	0.096 ± 0.036	0.106 ± 0.040	0.101 ± 0.038	0.079 ± 0.030	–	72	14.4
